US20130217664A1, “NOVEL COMPOUNDS USEFUL FOR THE TREATMENT OF DEGENERATIVE AND INFLAMMATORY DISEASES” (priority 2012, published 2013)
pIC50: −log10 of the molar value.

Legend:
human JAK1 = molecular target: T1, human JAK1 (Homo sapiens, UniProt P23458); assay: JAK1 inhibition assay (polyGT substrate / Ulight-JAK1 peptide); format: biochemical; conditions: recombinant human JAK1 catalytic domain; polyGT or Ulight-JAK1 peptide assay
T1 construct: catalytic domain, amino acids 866-1154; catalog number PV4774; purchased Invitrogen PV4774
T1 sequence (P23458 866-1154): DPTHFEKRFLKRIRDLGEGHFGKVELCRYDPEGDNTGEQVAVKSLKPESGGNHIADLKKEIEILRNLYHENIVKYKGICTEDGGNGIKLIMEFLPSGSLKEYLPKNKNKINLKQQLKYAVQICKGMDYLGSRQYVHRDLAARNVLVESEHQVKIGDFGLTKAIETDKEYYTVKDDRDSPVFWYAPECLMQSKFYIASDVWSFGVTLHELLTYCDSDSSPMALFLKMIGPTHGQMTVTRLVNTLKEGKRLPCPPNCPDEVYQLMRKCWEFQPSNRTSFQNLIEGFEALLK
Method: 1.1 JAK1 Inhibition Assay
1.1.1 JAK1 Assay polyGT Substrate
After 45 min at 30° C., reactions are stopped by adding of 25 μL/well of 150 mM phosphoric acid. […] Plates are washed 6 times with 300 μL per well of a 75 mM phosphoric acid solution and the bottom of the plates is sealed. 40 μL/well of Microscint-20 is added, the top of the plates is sealed and readout is performed using the Topcount (Perkin Elmer). Kinase activity is calculated by subtracting counts per min (cpm) obtained in the presence of a positive control inhibitor (10 μM staurosporine) from cpm obtained in the presence of vehicle. The ability of a test compound to inhibit this activity is determined as:
(§1) Percentage inhibition=((cpm determined for sample with test compound present−cpm determined for sample with positive control inhibitor)divided by(cpm determined in the presence of vehicle−cpm determined for sample with positive control inhibitor))*100.
Dose dilution series are prepared for the compounds enabling the testing of dose-response effects in the JAK1 assay and the calculation of the IC50 for each compound.
1.1.2 JAK1 Ulight-JAK1 Peptide Assay
(§2) After 60 min at room temperature, reactions were stopped by adding 20 μL/well of detection mixture (1× detection buffer (Perkin Elmer, catalog number CR97-100C), 0.5 nM Europium-anti-phosphotyrosine (PT66) (Perkin Elmer, catalog number AD0068), 10 mM EDTA). […] Kinase activity was calculated by subtracting relative fluorescence units (RFU) obtained in the presence of a positive control inhibitor (10 μM staurosporine) from RFU obtained in the presence of vehicle. The ability of a test compound to inhibit this activity was determined as:
(§3) Percentage inhibition=((RFU determined for sample with test compound present−RFU determined for sample with positive control inhibitor)divided by(RFU determined in the presence of vehicle−RFU determined for sample with positive control inhibitor))*100.
(§4) Dose dilution series were prepared for the compounds enabling the testing of dose-response effects in the JAK1 assay and the calculation of the IC50 for the compound. Each compound is routinely tested at concentration of 20 μM followed by a 1/5 serial dilution, 10 points in a final concentration of 1% DMSO. […] The data are expressed as the average IC50 from the assays±standard error of the mean.

human JAK2 = molecular target: T2, human JAK2 (Homo sapiens, UniProt O60674); assay: JAK2 inhibition assay (polyGT substrate / Ulight-JAK1 peptide); format: biochemical; conditions: recombinant human JAK2 catalytic domain; polyGT or Ulight-JAK1 peptide assay
T2 construct: catalytic domain (amino acids 808-1132; catalog number PV4210); GST; purchased Invitrogen PV4210
T2 sequence (O60674 808-1132): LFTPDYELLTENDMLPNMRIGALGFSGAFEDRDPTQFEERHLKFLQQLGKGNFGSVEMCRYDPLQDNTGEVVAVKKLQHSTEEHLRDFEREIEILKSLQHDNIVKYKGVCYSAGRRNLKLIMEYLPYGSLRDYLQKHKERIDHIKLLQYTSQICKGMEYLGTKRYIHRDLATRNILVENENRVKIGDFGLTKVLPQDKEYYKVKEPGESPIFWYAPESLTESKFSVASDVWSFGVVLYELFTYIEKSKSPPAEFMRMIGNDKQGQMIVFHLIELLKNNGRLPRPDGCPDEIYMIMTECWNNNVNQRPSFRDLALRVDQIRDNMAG
Method: 1.2 JAK2 Inhibition Assay
1.2.1 JAK2 Assay polyGT Substrate
0.025 mU of JAK2 is incubated with 2.5 μg polyGT substrate (Sigma catalog number P0275) in kinase reaction buffer (5 mM MOPS pH 7.5, 9 mM MgAc, 0.3 mM EDTA, 0.06% Brij and 0.6 mM DTT, 1 μM non-radioactive ATP, 0.25 μCi ^33P-gamma-ATP (GE Healthcare, catalog number AH9968) final concentrations) with or without 5 μL containing test compound or vehicle (DMSO, 1% final concentration), in a total volume of 25 μL, in a polypropylene 96-well plate (Greiner, V-bottom). After 90 min at 30° C., reactions are stopped by adding of 25 μL/well of 150 mM phosphoric acid. […] Plates are washed 6 times with 300 μL per well of a 75 mM phosphoric acid solution and the bottom of the plates is sealed. 40 μL/well of Microscint-20 is added, the top of the plates is sealed and readout is performed using the Topcount (Perkin Elmer). Kinase activity is calculated by subtracting counts per min (cpm) obtained in the presence of a positive control inhibitor (10 μM staurosporine) from cpm obtained in the presence of vehicle. The ability of a test compound to inhibit this activity is determined as:
as §1
Dose dilution series are prepared for the compounds enabling the testing of dose-response effects in the JAK2 assay and the calculation of the IC50 for each compound.
1.2.2 JAK2 Ulight-JAK1 Peptide Assay
as §2, §3
as §4, with “are” for “were”, “compound” for “the compounds”, “JAK2” for “JAK1”

Row | Compound | pIC50 (human JAK1) | pIC50 (human JAK2)
1 | CN(c1ccc(OCc2ccccc2)cc1)c1cc2c(cn1)ncn2C [Compound 14, N-(4-(benzyloxy)phenyl)-N,1-dimethyl-1H-imidazo[4,5-c]pyridin-6-amine] | < 6.00 | < 6.00
2 | Cc1cc(C(=O)O)ccc1N(C)c1cc2c(cn1)ncn2C [Compound 40, 3-methyl-4-(methyl(1-methyl-1H-imidazo[4,5-c]pyridin-6-yl)amino)benzoic acid] | < 6.00 | < 6.00
3 | CN(c1cc2c(cn1)ncn2C)c1ccccc1C(F)(F)F [Compound 36, N,1-dimethyl-N-(2-(trifluoromethyl)phenyl)-1H-imidazo[4,5-c]pyridin-6-amine] | < 6.00 | < 6.00
4 | CCc1c(C(=O)OC)cccc1N(C)c1cc2c(cn1)ncn2C [Compound 96, methyl 2-ethyl-3-(methyl(1-methyl-1H-imidazo[4,5-c]pyridin-6-yl)amino)benzate] | < 6.00 | < 6.00
5 | CCc1cc(C(=O)N2CCC(OC)CC2)ccc1N(C)c1cc2c(cn1)ncn2C [Compound 112, (3-ethyl-4-(methyl(1-methyl-1H-imidazo[4,5-c]pyridin-6-yl)amino)phenyl)(4-methoxypiperidin-1-yl)methanone] | < 6.00 | < 6.00
6 | COCCNC(=O)c1ccc(N(C)c2cc3c(cn2)ncn3C)c(C)c1 [Compound 50, N-(2-methoxyethyl)-3-methyl-4-(methyl(1-methyl-1H-imidazo[4,5-c]pyridin-6-yl)amino)benzamide] | < 6.00 | < 6.00
7 | CCc1cc(C(=O)N2CCS(=O)(=O)CC2)ccc1N(C)c1cc2c(cn1)ncn2C [Compound 104, (1,1-Dioxothiomorpholin-4-yl)-{3-ethyl-4-[methyl-(1-methyl-1H-imidazo[4,5-c]pyridin-6-yl)-amino]-phenyl}-methanone] | < 6.00 | < 6.00
8 | CCN(c1ccc2sc(C)nc2c1)c1cc2c(cn1)ncn2C [Compound 10, N-ethyl-2-methyl-N-(1-methyl-1H-imidazo[4,5-c]pyridin-6-yl)benzo[d]thiazol-5-amine] | < 6.00 | < 6.00
9 | CCc1cc(C(=O)N2CC(C)(C)C2)ccc1N(C)c1cc2c(cn1)ncn2C [Compound 113, (3,3-dimethylazetidin-1-yl)(3-ethyl-4-(methyl(1-methyl-1H-imidazo[4,5-c]pyridin-6-yl)amino)phenyl)methanone] | < 6.00 | < 6.00
10 | Cc1c(OCc2ccc(Cl)cc2)cccc1N(C)c1cc2c(cn1)ncn2C [Compound 76] | < 6.00 | < 6.00
11 | CN(c1cc2c(cn1)ncn2C)c1ccccc1C#N [Compound 41, 2-(Methyl(1-methyl-1H-imidazo[4,5-c]pyridin-6-yl)amino)benzonitrile] | < 6.00 | < 6.00
12 | CCc1cc(C(=O)N2CCC(N(C)C)C2)ccc1N(C)c1cc2c(cn1)ncn2C (centres unmarked) [Compound 106, (3-(dimethylamino)pyrrolidin-1-yl)(3-ethyl-4-(methyl(1-methyl-1H-imidazo[4,5-c]pyridin-6-yl)amino)phenyl)methanone] | < 6.00 | < 6.00

More lines, now with the values ahead:

Row | pIC50 (human JAK1) | pIC50 (human JAK2) | Compound
13 | 6.30 to 7.00 | < 6.00 | Cc1ccccc1N(C)c1cc2c(cn1)ncn2C [Compound 15, N,1-dimethyl-N-o-tolyl 1H-imidazo[4,5-c]pyridin-6-amine]
14 | 6.00 to 6.30 | < 6.00 | CCc1cc(C(=O)N2CCN(C)CC2)ccc1N(C)c1cc2c(cn1)ncn2C [Compound 100, (3-ethyl-4-(methyl(1-methyl-1H-imidazo[4,5-c]pyridin-6-yl)amino)phenyl)(4-methylpiperazin-1-yl)methanone]
15 | 6.30 to 7.00 | < 6.00 | CCc1ccc(C(N)=O)cc1N(C)c1cc2c(cn1)ncn2C [Compound 108, 4-ethyl-3-(methyl(1-methyl-1H-imidazo[4,5-c]pyridin-6-yl)amino)benzamide]
16 | 6.30 to 7.00 | < 6.00 | Cc1cc(Oc2ccc(C#N)nc2)ccc1N(C)c1cc2c(cn1)ncn2C [Compound 88, 5-(3-methyl-4-(methyl(1-methyl-1H-imidazo[4,5-c]pyridin-6-yl)amino)phenoxy)picolino-nitrile]
17 | 6.00 to 6.30 | < 6.00 | CCN(c1ccc(CO)cc1)c1cc2c(cn1)ncn2C [Compound 13, (4-(ethyl(1-methyl-1H-imidazo[4,5-c]pyridin-6-yl)amino)phenyl)MeOH]
18 | 6.30 to 7.00 | < 6.00 | CCc1ccncc1N(C)c1cc2c(cn1)ncn2C [Compound 78, N-(4-ethylpyridin-3-yl)-N,1-dimethyl-1H-imidazo[4,5-c]pyridin-6-amine]
19 | 6.30 to 7.00 | < 6.00 | Cc1c(Oc2ccc(C#N)nc2)cccc1N(C)c1cc2c(cn1)ncn2C [Compound 90, 5-(2-methyl-3-(methyl(1-methyl-1H-imidazo[4,5-c]pyridin-6-yl)amino)phenoxy)picolino-nitrile]
20 | 6.30 to 7.00 | < 6.00 | Cc1cc(OCc2ccccc2)ccc1N(C)c1cc2c(cn1)ncn2C [Compound 53, N-(4-(benzyloxy)-2-methylphenyl)-N,1-dimethyl-1H-imidazo[4,5-c]pyridin-6-amine]
21 | 6.00 to 6.30 | < 6.00 | CCN(c1ccc2oc(C)nc2c1)c1cc2c(cn1)ncn2C [Compound 6, N-ethyl-2-methyl-N-(1-methyl-1H-imidazo[4,5-c]pyridin-6-yl)benzo[d]oxazol-5-amine]
22 | 6.30 to 7.00 | < 6.00 | CCN(c1cccc(Oc2ccccc2)c1)c1cc2c(cn1)ncn2C [Compound 11, N-ethyl-1-methyl-N-(3-phenoxyphenyl)-1H-imidazo[4,5-c]pyridin-6-amine]
23 | 6.00 to 6.30 | < 6.00 | Cc1cc(OCc2ccc(Cl)cc2)ccc1N(C)c1cc2c(cn1)ncn2C [Compound 54, N-(4-(4-chlorobenzyloxy)-2-methylphenyl)-N,1-dimethyl-1H-imidazo[4,5-c]pyridin-6-amine]
24 | 6.30 to 7.00 | < 6.00 | COc1ccccc1N(C)c1cc2c(cn1)ncn2C [Compound 42, N-(2-methoxyphenyl)-N,1-dimethyl-1H-imidazo[4,5-c]pyridin-6-amine]
25 | 6.30 to 7.00 | < 6.00 | CCc1ccc(CO)cc1N(C)c1cc2c(cn1)ncn2C [Compound 109, (4-Ethyl-3-(methyl(1-methyl-1H-imidazo[4,5-c]pyridin-6-yl)amino)phenyl)MeOH]
26 | 6.30 to 7.00 | < 6.00 | CCc1ccc(C(=O)NCCOC)cc1N(C)c1cc2c(cn1)ncn2C [Compound 116, 4-Ethyl-N-(2-methoxyethyl)-3-(methyl(1-methyl-1H-imidazo[4,5-c]pyridin-6-yl)amino)benzamide]
27 | 6.30 to 7.00 | < 6.00 | CCc1cc(C(=O)N(C)C)ccc1N(C)c1cc2c(cn1)ncn2C [Compound 118, 3-ethyl-N,N-dimethyl-4-(methyl(1-methyl-1H-imidazo[4,5-c]pyridin-6-yl)amino)benzamide]
28 | 6.30 to 7.00 | < 6.00 | Cc1c(OCc2cccnc2)cccc1N(C)c1cc2c(cn1)ncn2C [Compound 69, N,1-dimethyl-N-(2-methyl-3-(pyridin-3-ylmethoxy)phenyl)-1H-imidazo[4,5-c]pyridin-6-amine]
